Experimental data as given in patent US7868008B2, “Substituted isoindolones and their use as metabotropic glutamate receptor potentiators” (AstraZeneca AB, priority 2005, dated 2011).

Target: T1, human mGluR2 (Homo sapiens, UniProt Q14416)
T1 construct: chimeric mGluR2/CaR construct comprising the extracellular and transmembrane domains of human mGluR2 and the intracellular domain of the human calcium receptor, fused
Experiment: mGluR2 potentiator assays described herein (FLIPR calcium mobilization in HEK 293 cells expressing chimeric mGluR2/CaR, or [35S]-GTPγS binding with CHO cell membranes)
Format: cell-based
Conditions: assay not specified (FLIPR or [35S]-GTPγS); allosteric activator/potentiator activity at mGluR2
From the text: The pharmacological properties of the compounds of the invention can be analyzed using standard assays for functional activity. Examples of glutamate receptor assays are well known in the art as described in, for example, Aramori et al., 1992, Neuron, 8:757; Tanabe et al., 1992, Neuron, 8:169; Miller et al., 1995, J. Neuroscience, 15:6103; Balazs, et al., 1997, J. Neurochemistry, 1997, 69:151. The methodology described in these publications is incorporated herein by reference. Conveniently, the compounds of the invention can be studied by means of an assay that measures the mobilization of intracellular calcium, [Ca^2+]i in cells expressing mGluR2.
Fluorometric Imaging Plate Reader (FLIPR) analysis was used to detect allosteric activators of mGluR2 via calcium mobilization. A clonal HEK 293 cell line expressing a chimeric mGluR2/CaR construct comprising the extracellular and transmembrane domains of human mGluR2 and the intracellular domain of the human calcium receptor, fused to the promiscuous chimeric protein Gαqi5 was used. […] At 24-hours prior to analysis, the cells were trypsinized and plated in DMEM at 100,000 cells/well in black sided, clear-bottom, collagen I coated, 96-well plates. The plates were incubated under 5% CO2 at 37° C. overnight. Cells were loaded with 6 μM fluo-3 acetoxymethylester (Molecular Probes, Eugene Oreg.) for 60 minutes at room temperature. […]
FLIPR experiments were done using a laser setting of 0.8 W and a 0.4 second CCD camera shutter speed. […] An addition of test compound (0.01 μM to 30 μM in duplicate) was made after 10 seconds of baseline fluorescent readings were recorded on FLIPR. Fluorescent signals were then recorded for an additional 75 seconds at which point a second addition of DCG-IV (0.2 μM) was made and fluorescent signals were recorded for an additional 65 seconds. Fluorescent signals were measured as the peak height of the response within the sample period. Data was analyzed using Assay Explorer, and EC50 and Emax values (relative to maximum DCG-IV effect) were calculated using a four parameter logistic equation.
A [^35S]-GTPγS binding assay was used to functionally assay mGluR2 receptor activation. The allosteric activator activity of compounds at the human mGluR2 receptor were measured using a [^35S]-GTPγS binding assay with membranes prepared from CHO cells which stably express the human mGluR2. […] The GTPγS binding assay therefore provides a quantitative measure of receptor activation.
Membranes were prepared from CHO cells stably transfected with human mGluR2. […] The amount of radioactivity bound was determined by counting plates on the Packard TopCount. […]

T1 sequence (Q14416 19-819 limits assumed): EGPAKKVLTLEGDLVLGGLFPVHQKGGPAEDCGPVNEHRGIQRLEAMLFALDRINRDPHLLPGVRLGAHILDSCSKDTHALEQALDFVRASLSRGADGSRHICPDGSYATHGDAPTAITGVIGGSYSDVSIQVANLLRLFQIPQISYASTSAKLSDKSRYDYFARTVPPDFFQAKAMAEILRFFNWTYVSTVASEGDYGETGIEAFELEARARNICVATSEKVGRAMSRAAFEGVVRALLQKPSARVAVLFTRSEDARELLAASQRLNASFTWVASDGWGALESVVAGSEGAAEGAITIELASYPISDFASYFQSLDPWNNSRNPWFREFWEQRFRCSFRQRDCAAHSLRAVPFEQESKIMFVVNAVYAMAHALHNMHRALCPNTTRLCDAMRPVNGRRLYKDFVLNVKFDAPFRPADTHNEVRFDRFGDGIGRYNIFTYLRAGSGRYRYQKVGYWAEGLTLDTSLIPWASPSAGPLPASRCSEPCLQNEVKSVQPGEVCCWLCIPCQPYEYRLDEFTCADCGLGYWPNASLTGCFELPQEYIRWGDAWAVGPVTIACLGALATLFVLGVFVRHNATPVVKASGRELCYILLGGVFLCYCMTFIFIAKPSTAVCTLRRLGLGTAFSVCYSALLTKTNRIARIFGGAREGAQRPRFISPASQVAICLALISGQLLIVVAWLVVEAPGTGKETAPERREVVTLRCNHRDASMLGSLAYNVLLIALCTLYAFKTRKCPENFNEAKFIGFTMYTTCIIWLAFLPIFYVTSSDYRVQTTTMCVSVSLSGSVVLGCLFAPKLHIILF

Compound	EC50 [nM]
Cc1cc(CC2CCN(Cc3ccccc3F)CC2)cc2c1C(=O)N(CC1CC1)C2 [Example 11, 2-Cyclopropylmethyl-5-[1-(2-fluorobenzyl)-piperidin-4-ylmethyl]-7-methyl-2,3-dihydro-isoindol-1-one]	84
Cc1cc(CC2CCN(Cc3ccc(F)cc3)CC2)cc2c1C(=O)N(CC1CCCCC1)C2 [Example 13.7, 2-Cyclohexylmethyl-5-[1-(4-fluoro-benzyl)-piperidin-4-ylmethyl]-7-methyl-2,3-dihydro-isoindol-1-one]	28
O=C1c2c(Cl)cc(-c3noc(CN4CCC(F)CC4)n3)cc2CN1Cc1ccc(OC(F)(F)F)cc1 [Example 8.3, 7-Chloro-5-[5-(4-fluoro-piperidin-1-ylmethyl)-[1,2,4]oxadiazol-3-yl]-2-(4-trifluoromethoxy-benzyl)-2,3-dihydro-isoindol-1-one]	75
Cc1cc(-c2nc(CN3CCN(C=O)CC3)no2)cc2c1C(=O)N(Cc1ccc(OC(F)(F)F)cc1)C2 [Example 10.4, 4-{5-[7-Methyl-1-oxo-2-(4-trifluoromethoxy-benzyl)-2,3-dihydro-1H-isoindol-5-yl]-[1,2,4]oxadiazol-3-ylmethyl}-piperazine-1-carbaldehyde]	230
